Source: patent US11339193B2, “CDP protein secretion inhibitors” (KEZAR LIFE SCIENCES, priority 2018, dated 2022)
Like-named read-outs stand apart in the source and are kept apart here. Numbered stars: 1 amine (or outer) side, 2 acyl side, 3 side chain; on linkers, the order of the positions; unused ones are H or OH. Square brackets hold non-standard residues; d marks the D form. Peptide text beside a SMILES is read from it. NMeAla(5-Cl-benzothien-3-yl) = CN[C@@H](Cc1csc2ccc(Cl)cc12)C(=O)O; Ala(1-cyclohexenyl) = N[C@@H](CC1=CCCCC1)C(=O)O; Butanoyl(2R-oxy,4-CN) = N#CCC[C@@H](O)C(=O)O; X22 = CCCC[C@@H](C)C[C@H](N[*:1])C(=O)[*:2]; Abu(4,4,4-F3) = N[C@@H](CC(F)(F)F)C(=O)O; Ala(cPent) = N[C@@H](CC1CCCC1)C(=O)O; NMeCha = CN[C@@H](CC1CCCCC1)C(=O)O; Cha = N[C@@H](CC1CCCCC1)C(=O)O; NMeL = CN[C@@H](CC(C)C)C(=O)O; NMeA = CN[C@@H](C)C(=O)O; Nva = CCC[C@H](N)C(=O)O; Abu = CC[C@H](N)C(=O)O

Key:
Type in all cases: cell-based
[1] = tested on: PD1-ss+10aa/Gaussia Luciferase; test: Dox induced PD1-ss-Gluc assay; conditions: read-out: PD1ss Gluc IC50
Description: Dox Induced PD1-ss-Gluc Assay
(§1) Flp-In 293 T-REx™ cells were transfected with pcDNA™5/FRT/TO plasmid inserted with cDNA encoding Gaussia Luciferase fused to the 3′ end of cDNA encoding PD1 signal sequence plus 10 amino acids (N-[…]-C) (SEQ ID NO:3). Transfected cells were selected for resistance to the selectable markers Hygromycin and Blasticidin to create a stable cell line that contained the PD1-ss+10aa/Gaussia Luciferase cDNA insert whose expression was regulated under the T-REx™ system. The day before assay, cells were trypsinized and plated in 384-well tissue culture plates. The next day, compound dilutions in DMSO/media containing doxycycline were added to the wells and incubated at 37° C., 5% CO2.

[2] = tested on: TNFα-FL/Gaussia Luciferase; test: Dox induced TNFα-FL-Gluc assay; conditions: read-out: TNFa FL Gluc IC50
Description: Dox Induced TNFα-FL-Gluc Assay
Flp-In 293 T-REx™ cells were transfected with pcDNA™5/FRT/TO plasmid inserted with cDNA encoding Gaussia Luciferase fused to the 3′ end of cDNA encoding full length TNFα (amino acids 1-233). Transfected cells were selected for resistance to the selectable markers Hygromycin and Blasticidin to create a stable cell line that contained the TNFα-FL/Gaussia Luciferase cDNA insert whose expression was regulated under the T-REx™ system. The day before assay, cells were trypsinized and plated in 384-well tissue culture plates. The next day, compound dilutions in DMSO/media containing doxycycline were added to the wells and incubated at 37° C., 5% CO2.

[3] = tested on: NCI-H929 multiple myeloma cell line; test: H929 assay (cell viability, Celltiter-Glo); conditions: Homo sapiens, NCI-H929, read-out: H929 EC50
Method: The human multiple myeloma cell line NCI-H929 was cultured in Advanced RPMI 1640 media (Gibco@) supplemented with 6% fetal bovine serum, 2 mM Glutamine, and 1× Penicillin/Streptomycin. On the day of assay, cells were resuspended in RPMI 1640 media supplemented with 10% fetal bovine serum, 2 mM Glutamine, and 1× Penicillin/Streptmycin and plated in 384-well tissue culture plates and treated with compound dilutions in DMSO/media. Plates were incubated at 37° C., 5% CO2 for 48 hours. After 48 hours, Celltiter-Glo@ (Promega) was added to each well and luciferase signal was quantified using Tecan Infinite M1000 Pro for cell viability determination.

[4] = tested on: Prl-ss+10aa/Gaussia Luciferase; test: Prl-ss-Gluc assay (constitutively active or 24 hr Dox inducible); conditions: read-out: Prl IC50
Description: Constitutively Active Prl-ss-Gluc Assay
Flp-In 293 T-REx™ cells were transfected with pcDNA™5/FRT plasmid inserted with cDNA encoding Gaussia Luciferase fused to the 3′ end of cDNA encoding Prl signal sequence plus 10 amino acids (N-[…]-C) (SEQ ID NO:4). Transfected cells were selected for resistance to the selectable markers Hygromycin and Blasticidin to create a stable cell line that constitutively expressed the Prlss+10aa/Gaussia Luciferase fusion protein. The day before assay, cells were trypsinized and plated in 384-well tissue culture plates. The next day, culture media was removed from the wells and replaced with fresh media. Compound dilutions in DMSO/media were added to the wells and incubated at 37° C., 5% CO2.
24 hr Dox Inducible Prl-ss-Gluc Assay
as §1, with “Prl” for “PD1”, “NO:5).” for “NO:3).”, “Prl-ss+10aa/Gaussia” for “PD1-ss+10aa/Gaussia”

HER3ss-Gluc = test: HER3ss assay; conditions: HEK-293T T-rex cells, transient transfection, doxycycline, 24 h; read-out: HER3 ss IC50
Method: The mature domain of secreted luciferase from Gaussia princeps (GLuc) was cloned into pcDNA5/FRT/TO. The signal sequence plus four amino acids of the mature domain from HER3 ([…]) (SEQ ID NO:8) were cloned upstream of GLuc mature domain and used in transient transfection experiment. HEK-293T T-rex cells were cultured in Dulbecco's modified Eagle's medium with 10% FBS at 5% CO2. Cells were plated 1×10e6 cells per well in a 6-well plate and incubated for 6 h. Cells were transiently transfected with HER3ss-Gluc using Lipofectamine 2000 (Invitrogen). After overnight incubation, transfected cells were replated in a clear-bottomed, black 96-well plate at a density of 20,000 cells per well. Six hours after plating, the cells were treated with doxycycline (1 μg/ml) and increasing concentrations of the indicated compounds for 24 h. Secreted luciferase in the conditioned media was quantified by luminescence using the BioLux Gaussia Luciferase Assay Kit (New England Biolabs, Ipswich, Mass., USA) and a SpectraMax M5 plate reader (Molecular Devices).

[5] = tested on: U266B1 multiple myeloma cell line; test: U266 assay (cell viability, Celltiter-Glo); conditions: Homo sapiens, U-266; I.A.
Method: Cells were plated in 384-well tissue culture plates and treated with compound dilutions in DMSO/media. Plates were incubated at 37° C., 5% CO2 for 48 hours. After 48 hours, Celltiter-Glo@ (Promega) was added to each well and luciferase signal was quantified using Tecan Infinite M1000 Pro for cell viability determination.

[6] = Flp-In 293 T-REx cells, doxycycline, 24 hours
[7] = Flp-In 293 T-REx cells, 24 hours

Row | Structure (SMILES) | IC50 ([1]; I.A.) [nM] | IC50 ([2]; I.A.) [nM] | EC50 ([3]; I.A.) [nM] | IC50 ([4]; I.A.) [nM] | IC50 (HER3ss-Gluc) [nM] | EC50 [5] [nM] | IC50 [1, 6] [nM] | IC50 [2, 6] [nM] | EC50 ([3]; 48 hours, cell viability) [nM] | IC50 [4, 7] [nM]
1 | CC(C)C[C@@H]1NC(=O)[C@H](Cc2csc3ccc(Cl)cc23)N(C)C(=O)[C@H](CC2=CCCCC2)NC(=O)[C@H](CC(C)C)N(C)C(=O)[C@H](CC2=CCCCC2)NC(=O)[C@@H](CCC#N)OC(=O)[C@H](C)N(C)C1=O [C-87] (cyclo(L[NMeA][Butanoyl(2R-oxy,4-CN)][Ala(1-cyclohexenyl)][NMeL][Ala(1-cyclohexenyl)][NMeAla(5-Cl-benzothien-3-yl)])) | > 25000 | > 25000 | > 25000 | > 25000 | 11 | > 25000 |  |  |  | 
2 | CCCC[C@@H](C)C[C@@H]1NC(=O)[C@H](CC2CCCCC2)N(C)C(=O)[C@H](CC)NC(=O)[C@H](CC(C)C)N(C)C(=O)[C@H](C[C@H](C)CCCC)NC(=O)[C@@H](CCC#N)OC(=O)[C@H](C)N(C)C1=O [C-43] (cyclo([Abu][NMeCha][X22][NMeA][Butanoyl(2R-oxy,4-CN)][X22][NMeL])) |  |  |  |  |  |  | 67 | 211 | 593 | 1530
3 | CCCC[C@@H](C)C[C@@H]1NC(=O)[C@H](CC2CCCCC2)N(C)C(=O)[C@H](CC(C)C)NC(=O)[C@H](CC(C)C)N(C)C(=O)[C@H](CC2CCCCC2)NC(=O)[C@@H](CCC#N)OC(=O)[C@H](C)N(C)C1=O [C-45] (cyclo([Cha][NMeL]L[NMeCha][X22][NMeA][Butanoyl(2R-oxy,4-CN)])) |  |  |  |  |  |  | 248 | 911 | 4910 | 2500
4 | CCCC[C@@H](C)C[C@@H]1NC(=O)[C@H](CC2CCCCC2)N(C)C(=O)[C@H](CCC)NC(=O)[C@H](CC(C)C)N(C)C(=O)[C@H](C[C@H](C)CCCC)NC(=O)[C@@H](CCC#N)OC(=O)[C@H](C)N(C)C1=O [C-44] (cyclo([NMeA][Butanoyl(2R-oxy,4-CN)][X22][NMeL][Nva][NMeCha][X22])) |  |  |  |  |  |  | 37 | 109 | 376 | 740
5 | CC(C)C[C@@H]1NC(=O)[C@H](Cc2csc3ccc(Cl)cc23)N(C)C(=O)[C@H](CC(C)C)NC(=O)[C@H](CC(C)C)N(C)C(=O)[C@H](CC(F)(F)F)NC(=O)[C@@H](CCC#N)OC(=O)[C@H](C)N(C)C1=O [C-67] (cyclo(L[NMeA][Butanoyl(2R-oxy,4-CN)][Abu(4,4,4-F3)][NMeL]L[NMeAla(5-Cl-benzothien-3-yl)])) |  |  |  |  | 9 |  | 397 | 754 | 4090 | 
6 | CCCC[C@@H](C)C[C@@H]1NC(=O)[C@@H](CCC#N)OC(=O)[C@H](C)N(C)C(=O)[C@H](CC)NC(=O)[C@H](Cc2ccccc2)N(C)C(=O)[C@H](CC(C)C)NC(=O)[C@H](CC(C)C)N(C)C1=O [C-25] (HELM PEPTIDE1{[Abu].[meA].[N#CCC[C@@H](O[*:1])C(=O)[*:2]].[CCCC[C@@H](C)C[C@H](N[*:1])C(=O)[*:2]].[meL].L.[meF]}$PEPTIDE1,PEPTIDE1,1:R1-7:R2$$$V2.0) |  |  |  |  |  |  | 297 | 376 | 2360 | 
7 | CCCC[C@@H](C)C[C@@H]1NC(=O)[C@H](CC2CCCCC2)N(C)C(=O)[C@H](CC(C)C)NC(=O)[C@H](CC(C)C)N(C)C(=O)[C@H](CC2CCCC2)NC(=O)[C@@H](CCC#N)OC(=O)[C@H](C)N(C)C1=O [C-47] (cyclo([Ala(cPent)][NMeL]L[NMeCha][X22][NMeA][Butanoyl(2R-oxy,4-CN)])) |  |  |  |  |  |  | 367 | 1130 | 6960 | 
8 | CCCC[C@@H](C)C[C@@H]1NC(=O)[C@@H](C)OC(=O)[C@H](C)N(C)C(=O)[C@H](C(C)C)NC(=O)[C@H](Cc2ccccc2)N(C)C(=O)[C@H](CC(C)C)NC(=O)[C@H](CC(C)C)N(C)C1=O [C-02] (HELM PEPTIDE1{L.[meF].V.[meA].[C[C@@H](O[*:1])C(=O)[*:2]].[CCCC[C@@H](C)C[C@H](N[*:1])C(=O)[*:2]].[meL]}$PEPTIDE1,PEPTIDE1,1:R1-7:R2$$$V2.0) |  |  |  |  |  |  | 460 | 779 | 4060 | 
9 | CCCC[C@@H](C)C[C@@H]1NC(=O)[C@H](CC2CCCCC2)N(C)C(=O)[C@H](CC(C)C)NC(=O)[C@H](CC(C)C)N(C)C(=O)[C@H](CC2=CCCCC2)NC(=O)[C@@H](CCC#N)OC(=O)[C@H](C)N(C)C1=O [C-56] (cyclo(L[NMeCha][X22][NMeA][Butanoyl(2R-oxy,4-CN)][Ala(1-cyclohexenyl)][NMeL])) |  |  |  |  |  |  | 94 | 238 | 1650 | 
10 | CCCC[C@@H](C)C[C@@H]1NC(=O)[C@H](Cc2ccccc2)N(C)C(=O)[C@H](CC(C)C)NC(=O)[C@H](CC(C)C)N(C)C(=O)[C@H](C(C)C)NC(=O)[C@@H](C)OC(=O)[C@H](C)N(C)C1=O [C-07] (HELM PEPTIDE1{L.[meF].[CCCC[C@@H](C)C[C@H](N[*:1])C(=O)[*:2]].[meA].[C[C@@H](O[*:1])C(=O)[*:2]].V.[meL]}$PEPTIDE1,PEPTIDE1,1:R1-7:R2$$$V2.0) |  |  |  |  |  |  | 656 | 1260 | 5550 | 
11 | CCCC[C@@H](C)C[C@@H]1NC(=O)[C@H](CC2CCCCC2)N(C)C(=O)[C@H](CC(C)C)NC(=O)[C@H](CC(C)C)N(C)C(=O)[C@H]([C@@H](C)CC)NC(=O)[C@@H](CCC#N)OC(=O)[C@H](C)N(C)C1=O [C-61] (cyclo(I[NMeL]L[NMeCha][X22][NMeA][Butanoyl(2R-oxy,4-CN)])) |  |  |  |  |  |  | 392 | 1890 | 4560 | 
12 | CCCC[C@@H](C)C[C@@H]1NC(=O)[C@H](CC2CCCCC2)N(C)C(=O)[C@H](CC(C)C)NC(=O)[C@H](CC(C)C)N(C)C(=O)[C@H](C[C@H](C)CCCC)NC(=O)[C@@H](CCC#N)OC(=O)[C@H](C)N(C)C1=O [C-18] (cyclo(L[NMeCha][X22][NMeA][Butanoyl(2R-oxy,4-CN)][X22][NMeL])) |  |  |  |  |  |  | 37 | 84 | 429 | 
13 | CCCC[C@@H](C)C[C@@H]1NC(=O)[C@H](CC2=CCCC2)N(C)C(=O)[C@H](CC(C)C)NC(=O)[C@H](CC(C)C)N(C)C(=O)[C@H](C[C@H](C)CCCC)NC(=O)[C@@H](CCC#N)OC(=O)[C@H](C)N(C)C1=O [C-23] |  |  |  |  |  |  | 66 | 88 | 953 | 
